Common to all, as to assay: PDSP binding screen
The target of one assay is T1, Serotonin 5-HT1A (Homo sapiens, UniProt P08908).
T1 sequence (P08908 1-422): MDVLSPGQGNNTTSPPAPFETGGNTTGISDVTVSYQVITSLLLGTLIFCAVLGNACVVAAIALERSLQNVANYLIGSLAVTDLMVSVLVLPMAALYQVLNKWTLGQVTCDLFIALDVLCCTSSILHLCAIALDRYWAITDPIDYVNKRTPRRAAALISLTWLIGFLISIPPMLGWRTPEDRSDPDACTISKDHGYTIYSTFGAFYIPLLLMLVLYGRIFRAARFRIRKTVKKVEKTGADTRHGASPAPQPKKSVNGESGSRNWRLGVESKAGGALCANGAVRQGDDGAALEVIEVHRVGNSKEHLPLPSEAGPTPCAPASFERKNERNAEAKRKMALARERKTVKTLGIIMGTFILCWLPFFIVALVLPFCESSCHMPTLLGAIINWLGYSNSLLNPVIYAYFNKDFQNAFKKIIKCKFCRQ

The target of the next assay is Serotonin 5-HT1B (Homo sapiens, UniProt P28222). To be noted: for inhibition at 10 µM: read-out: Ki (nM) or % inhibition at 10 µM: 5-HT1B.
The target in another assay is T2, Serotonin 5-HT2C (Homo sapiens, UniProt P28335).
T2 sequence (P28335 33-458): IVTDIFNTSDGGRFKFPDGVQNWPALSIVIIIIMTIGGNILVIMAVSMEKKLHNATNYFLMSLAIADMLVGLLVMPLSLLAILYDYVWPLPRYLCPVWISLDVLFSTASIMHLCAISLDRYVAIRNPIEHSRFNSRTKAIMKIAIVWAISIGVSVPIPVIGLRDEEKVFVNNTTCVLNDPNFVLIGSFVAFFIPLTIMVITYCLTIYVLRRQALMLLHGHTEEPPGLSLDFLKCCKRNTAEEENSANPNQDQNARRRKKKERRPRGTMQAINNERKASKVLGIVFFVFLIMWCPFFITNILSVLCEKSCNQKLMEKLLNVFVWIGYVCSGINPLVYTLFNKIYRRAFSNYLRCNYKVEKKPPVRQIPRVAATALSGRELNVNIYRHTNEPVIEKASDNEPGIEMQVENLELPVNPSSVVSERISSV

The target of the next assay is Serotonin 5-HT7A (Homo sapiens, UniProt P34969). To be noted: for inhibition at 10 µM: read-out: Ki (nM) or % inhibition at 10 µM: 5-HT7A.
A further assay addresses T3, Adrenergic alpha1B (Homo sapiens, UniProt P35368).
T3 sequence (P35368 1-520): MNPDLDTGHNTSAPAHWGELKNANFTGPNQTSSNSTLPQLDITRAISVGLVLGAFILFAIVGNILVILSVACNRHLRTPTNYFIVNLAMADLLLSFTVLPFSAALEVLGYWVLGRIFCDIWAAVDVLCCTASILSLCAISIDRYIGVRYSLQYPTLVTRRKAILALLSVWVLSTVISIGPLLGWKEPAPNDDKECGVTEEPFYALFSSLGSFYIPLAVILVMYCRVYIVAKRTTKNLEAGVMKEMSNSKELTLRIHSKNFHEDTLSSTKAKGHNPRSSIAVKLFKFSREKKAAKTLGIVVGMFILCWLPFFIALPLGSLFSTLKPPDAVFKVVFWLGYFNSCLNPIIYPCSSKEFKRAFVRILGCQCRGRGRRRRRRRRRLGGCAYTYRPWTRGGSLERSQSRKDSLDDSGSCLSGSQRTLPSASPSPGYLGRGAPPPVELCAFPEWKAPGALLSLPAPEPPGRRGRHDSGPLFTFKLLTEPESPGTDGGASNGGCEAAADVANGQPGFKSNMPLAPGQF
The conditions noted are these: for inhibition at 10 µM: read-out: Ki (nM) or % inhibition at 10 µM: alpha1B.

Another assay concerns the target T4, Adrenergic alpha2C (Homo sapiens, UniProt P18825).
T4 sequence (P18825 1-462): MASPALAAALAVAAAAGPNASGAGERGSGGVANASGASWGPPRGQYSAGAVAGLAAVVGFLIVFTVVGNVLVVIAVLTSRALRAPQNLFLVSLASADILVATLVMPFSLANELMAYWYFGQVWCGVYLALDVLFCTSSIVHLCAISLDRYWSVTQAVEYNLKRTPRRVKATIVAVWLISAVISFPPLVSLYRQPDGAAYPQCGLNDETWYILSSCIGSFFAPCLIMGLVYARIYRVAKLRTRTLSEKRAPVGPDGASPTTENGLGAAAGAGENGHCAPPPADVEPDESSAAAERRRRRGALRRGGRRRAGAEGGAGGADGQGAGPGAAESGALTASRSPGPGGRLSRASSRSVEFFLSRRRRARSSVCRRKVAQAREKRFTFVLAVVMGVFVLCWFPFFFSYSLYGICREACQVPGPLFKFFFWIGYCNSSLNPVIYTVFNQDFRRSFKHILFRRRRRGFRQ

The target of another assay is Adrenergic beta1 (Homo sapiens, UniProt P08588). To be noted: for inhibition at 10 µM: read-out: Ki (nM) or % inhibition at 10 µM: beta1.
For another assay, the target named is T5, Dopamine D4 (Homo sapiens, UniProt P21917).
T5 sequence (P21917 1-419): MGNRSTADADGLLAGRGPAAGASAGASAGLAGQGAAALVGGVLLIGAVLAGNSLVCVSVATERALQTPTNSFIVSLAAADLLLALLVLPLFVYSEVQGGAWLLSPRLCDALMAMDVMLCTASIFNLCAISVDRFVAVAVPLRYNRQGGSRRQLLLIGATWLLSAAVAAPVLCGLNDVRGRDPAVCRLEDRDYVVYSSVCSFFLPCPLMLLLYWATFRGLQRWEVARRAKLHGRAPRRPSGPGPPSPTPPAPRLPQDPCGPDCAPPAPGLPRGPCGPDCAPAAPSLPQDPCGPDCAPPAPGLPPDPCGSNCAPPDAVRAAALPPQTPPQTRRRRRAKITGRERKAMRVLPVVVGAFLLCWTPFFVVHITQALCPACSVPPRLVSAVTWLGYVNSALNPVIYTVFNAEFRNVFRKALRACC

A further assay addresses Opioid MOR (Homo sapiens, UniProt P35372). To be noted: for inhibition at 10 µM: read-out: Ki (nM) or % inhibition at 10 µM: MOR.
In a further assay the target is Histamine H4 (Homo sapiens, UniProt Q9H3N8). To be noted: for inhibition at 10 µM: read-out: Ki (nM) or % inhibition at 10 µM: H4.

Data on nine compounds can be found in PMC9820167, “Design and Synthesis of Conformationally Flexible Scaffold as Bitopic Ligands for Potent D3-Selective Antagonists” (International Journal of Molecular Sciences, 2022).

Sequence of Serotonin 5-HT1B (P28222 whole entry): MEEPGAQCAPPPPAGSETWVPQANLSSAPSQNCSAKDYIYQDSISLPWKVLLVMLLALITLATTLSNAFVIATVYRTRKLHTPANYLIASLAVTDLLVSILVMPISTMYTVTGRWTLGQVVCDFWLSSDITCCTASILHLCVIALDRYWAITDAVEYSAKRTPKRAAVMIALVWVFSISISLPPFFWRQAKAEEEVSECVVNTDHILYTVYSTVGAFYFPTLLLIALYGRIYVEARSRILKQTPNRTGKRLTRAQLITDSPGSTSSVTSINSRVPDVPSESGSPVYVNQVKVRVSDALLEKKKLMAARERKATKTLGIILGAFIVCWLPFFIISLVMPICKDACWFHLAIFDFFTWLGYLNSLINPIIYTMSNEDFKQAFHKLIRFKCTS
Sequence of Adrenergic beta1 (P08588 whole entry): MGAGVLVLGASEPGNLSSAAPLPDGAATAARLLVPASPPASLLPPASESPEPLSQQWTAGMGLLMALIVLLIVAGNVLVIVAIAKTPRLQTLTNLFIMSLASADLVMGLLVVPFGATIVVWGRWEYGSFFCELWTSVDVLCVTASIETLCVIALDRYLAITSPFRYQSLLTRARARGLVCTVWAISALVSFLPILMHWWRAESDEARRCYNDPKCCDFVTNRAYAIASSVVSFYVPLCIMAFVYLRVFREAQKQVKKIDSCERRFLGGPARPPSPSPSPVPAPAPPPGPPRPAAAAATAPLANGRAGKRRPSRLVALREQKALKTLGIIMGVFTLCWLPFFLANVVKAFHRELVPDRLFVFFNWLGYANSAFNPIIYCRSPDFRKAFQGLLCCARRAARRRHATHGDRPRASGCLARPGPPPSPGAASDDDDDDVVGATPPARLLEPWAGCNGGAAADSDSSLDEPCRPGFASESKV
Sequence of Opioid MOR (P35372 whole entry): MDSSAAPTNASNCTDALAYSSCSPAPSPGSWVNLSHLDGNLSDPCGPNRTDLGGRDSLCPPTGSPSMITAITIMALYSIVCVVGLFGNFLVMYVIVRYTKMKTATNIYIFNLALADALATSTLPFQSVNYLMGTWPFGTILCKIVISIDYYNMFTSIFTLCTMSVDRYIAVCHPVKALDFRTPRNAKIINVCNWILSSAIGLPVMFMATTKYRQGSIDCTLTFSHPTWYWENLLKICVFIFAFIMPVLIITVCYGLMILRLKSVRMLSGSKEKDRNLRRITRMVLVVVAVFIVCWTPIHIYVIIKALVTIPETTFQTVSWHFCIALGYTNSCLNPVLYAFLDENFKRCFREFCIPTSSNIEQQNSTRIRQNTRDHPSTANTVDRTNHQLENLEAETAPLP
Sequence of Histamine H4 (Q9H3N8 whole entry): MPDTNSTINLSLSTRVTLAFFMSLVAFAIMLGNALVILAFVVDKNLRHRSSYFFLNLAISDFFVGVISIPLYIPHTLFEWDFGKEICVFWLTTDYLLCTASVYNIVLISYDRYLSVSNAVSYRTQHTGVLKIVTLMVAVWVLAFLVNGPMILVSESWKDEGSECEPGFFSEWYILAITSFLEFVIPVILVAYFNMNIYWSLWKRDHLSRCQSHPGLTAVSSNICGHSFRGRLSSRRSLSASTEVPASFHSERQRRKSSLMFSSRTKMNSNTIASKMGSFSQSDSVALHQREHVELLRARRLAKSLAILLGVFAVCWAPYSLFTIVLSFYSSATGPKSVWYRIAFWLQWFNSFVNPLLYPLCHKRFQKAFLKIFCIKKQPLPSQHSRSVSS
Sequence of Serotonin 5-HT7A (P34969 1-445 isoform P34969-2): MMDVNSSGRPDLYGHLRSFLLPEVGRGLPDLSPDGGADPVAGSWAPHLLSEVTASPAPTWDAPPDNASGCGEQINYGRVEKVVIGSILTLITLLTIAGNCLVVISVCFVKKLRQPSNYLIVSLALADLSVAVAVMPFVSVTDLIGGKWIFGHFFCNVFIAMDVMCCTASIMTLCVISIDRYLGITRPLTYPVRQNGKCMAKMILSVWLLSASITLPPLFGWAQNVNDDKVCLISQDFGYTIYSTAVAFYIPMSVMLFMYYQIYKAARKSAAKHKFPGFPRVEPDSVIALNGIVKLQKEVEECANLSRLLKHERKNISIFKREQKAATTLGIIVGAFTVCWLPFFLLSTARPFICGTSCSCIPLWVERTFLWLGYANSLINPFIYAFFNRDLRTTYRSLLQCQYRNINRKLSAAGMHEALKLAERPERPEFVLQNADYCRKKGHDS

Take `CCN(CCCNC(=O)c1ccc(-c2cccs2)cc1)CCNC(=O)c1cc(Br)cc(OC)c1OC` [9a, 5-Bromo-N-(2-(ethyl(3-(4-(thiophen-2-yl)benzamido)propyl)amino)ethyl)-2,3-dimethoxybenzamide]: the Ki is 1740 nM on Serotonin 5-HT1A; 905 nM at Serotonin 5-HT1B; 577 nM on Serotonin 5-HT2C; 2190 nM on Adrenergic alpha1B; 313 nM on Adrenergic alpha2C; 5900 nM at Adrenergic beta1. For the same compound, the Ki on Dopamine D4 was determined as 579 nM; at Opioid MOR, 1560 nM; at Histamine H4, 6420 nM. In addition, the inhibition at 10 µM on Serotonin 5-HT7A is less than 50%.
As for `CCCN(CCCNC(=O)c1ccc(-c2cccs2)cc1)CCNC(=O)c1cc(Br)cc(OC)c1OC` [20a, 5-Bromo-2,3-dimethoxy-N-(2-(propyl(3-(4-(thiophen-2-yl)benzamido)propyl)amino)ethyl)benzamide], the inhibitory constant (Ki) at Serotonin 5-HT1A is 194 nM; at Serotonin 5-HT1B it was 1050 nM; at Serotonin 5-HT2C, 2020 nM; at Adrenergic alpha1B, 1400 nM; on Adrenergic alpha2C, 113 nM; at Adrenergic beta1, 3710 nM. The inhibitory constant (Ki) turned out to be 938 nM on Dopamine D4, 3020 nM at Opioid MOR and 3460 nM at Histamine H4. Also, at Serotonin 5-HT7A, the inhibition at 10 µM was less than 50%.
For the compound `CCN(CCCNC(=O)c1ccc2ccccc2c1)CCNC(=O)c1cc(Br)cc(OC)c1OC` [21a, N-(3-((2-(5-Bromo-2,3-dimethoxybenzamido)ethyl)(ethyl)amino)propyl)-2-naphthamide], the Ki on Serotonin 5-HT1A came out at 971 nM; at Serotonin 5-HT2C, 1330 nM; at Adrenergic alpha1B, 3940 nM; on Adrenergic alpha2C it was 195 nM; at Dopamine D4 it was 377 nM; at Opioid MOR it was 1080 nM. In addition, the inhibition at 10 µM on Serotonin 5-HT1B, on Serotonin 5-HT7A, at Adrenergic beta1 and on Histamine H4 was less than 50% in each case.
With `CCN(CCCNC(=O)c1ccc(-c2ccncc2)cc1)CCNC(=O)c1cc(Br)cc(OC)c1OC` [21c, 5-Bromo-N-(2-(ethyl(3-(4-(pyridin-4-yl)benzamido)propyl)amino)ethyl)-2,3-dimethoxybenzamide], the Ki worked out at 509 nM on Serotonin 5-HT1A, 1500 nM on Serotonin 5-HT2C, 524 nM at Adrenergic alpha2C and 2180 nM at Dopamine D4. The inhibition at 10 µM on Serotonin 5-HT1B, on Serotonin 5-HT7A, at Adrenergic alpha1B, on Adrenergic beta1, on Opioid MOR and on Histamine H4 was less than 50% in each case.
As to `CCN(CCCNC(=O)c1cc2ccccc2[nH]1)CCNC(=O)c1cc(Br)cc(OC)c1OC` [21d, N-(3-((2-(5-Bromo-2,3-dimethoxybenzamido)ethyl)(ethyl)amino)propyl)-1H-indole-2-carboxamide], the Ki is 692 nM on Serotonin 5-HT1A; 2100 nM on Serotonin 5-HT2C; more than 10000 nM on Adrenergic alpha1B; 532 nM at Adrenergic alpha2C; 239 nM on Dopamine D4; 2410 nM on Opioid MOR. Moreover, the inhibition at 10 µM on Serotonin 5-HT1B, at Serotonin 5-HT7A, on Adrenergic beta1 and at Histamine H4 was less than 50% each time.
For `CCN(CCCNC(=O)c1cn2ccccc2n1)CCNC(=O)c1cc(Br)cc(OC)c1OC` [21e, N-(3-((2-(5-Bromo-2,3-dimethoxybenzamido)ethyl)(ethyl)amino)propyl)imidazo[1,2-a]pyridine-2-carboxamide], the Ki on Serotonin 5-HT1A turned out to be 575 nM; at Serotonin 5-HT2C, 5780 nM; at Adrenergic alpha2C, 1760 nM; on Adrenergic beta1, 6520 nM. Besides, the inhibition at 10 µM at Serotonin 5-HT1B, on Serotonin 5-HT7A, at Adrenergic alpha1B, on Dopamine D4 (read-out: Ki (nM) or % inhibition at 10 µM: D4), at Opioid MOR and on Histamine H4 was less than 50% each time.
`CCN(CCCNC(=O)c1ccc(-c2ccsc2)cc1)CCNC(=O)c1cc(Br)cc(OC)c1OC` [21g, 5-Bromo-N-(2-(ethyl(3-(4-(thiophen-3-yl)benzamido)propyl)amino)ethyl)-2,3-dimethoxybenzamide]: the Ki stood at 3310 nM on Serotonin 5-HT1A; 1060 nM on Serotonin 5-HT1B; 354 nM on Serotonin 5-HT2C; 2250 nM at Serotonin 5-HT7A; 1630 nM on Adrenergic alpha1B; 78 nM on Adrenergic alpha2C. The Ki on Adrenergic beta1 stood at 1890 nM; on Dopamine D4, 582 nM; on Opioid MOR, 2160 nM. The inhibition at 10 µM at Histamine H4 is less than 50%.
On to `CCN(CCCNC(=O)c1ccsc1)CCNC(=O)c1cc(Br)cc(OC)c1OC` [21i, N-(3-((2-(5-Bromo-2,3-dimethoxybenzamido)ethyl)(ethyl)amino)propyl)thiophen-e-3-carboxamide], for which the Ki on Serotonin 5-HT1A was 245 nM; on Serotonin 5-HT2C, 9730 nM; on Adrenergic alpha2C, 1290 nM; at Dopamine D4 it was 514 nM. Further, the inhibition at 10 µM on Serotonin 5-HT1B, at Serotonin 5-HT7A, at Adrenergic alpha1B, at Adrenergic beta1, on Opioid MOR and at Histamine H4 was less than 50% throughout.
Turning to `CCN(CCCNC(=O)c1cc2ccccc2n1C)CCNC(=O)c1cc(Br)cc(OC)c1OC` [21j, N-(3-((2-(5-Bromo-2,3-dimethoxybenzamido)ethyl)(ethyl)amino)propyl)-1-methyl-1H-indole-2-carboxamide], the Ki on Serotonin 5-HT1A stood at 961 nM; on Serotonin 5-HT2C, 5060 nM; on Adrenergic alpha2C, 183 nM; on Dopamine D4, 878 nM; on Opioid MOR it was 2770 nM. Besides, the inhibition at 10 µM at Serotonin 5-HT1B, at Serotonin 5-HT7A, on Adrenergic alpha1B, at Adrenergic beta1 and at Histamine H4 was less than 50% in each case.
